Measured values: patent US20080146617A1, “Methods of treating inflammatory diseases” (Roche Palo Alto LLC, priority 2006, published 2008)

Legend:
BRAF(V600E) = biological target: T1, BRAF(V600E) (Homo sapiens, UniProt P15056, V600E); experiment: KinomeScan kinase profiling; assay type: binding
T1 construct: purchased Ambit Biosciences (San Diego, Calif.)
Description: (§2) The selectivity of a given CK1δ, CK1ε or CK1δ-CK1ε inhibitor compound can be determined by testing the compound against a panel of known kinases. An example of such a kinase profiling technology is the “KinomeScan” from Ambit Biosciences in which compounds can be screened for their modulatory activities against more than 200 known kinases.

CDK5 = biological target: T2, CDK5 (Homo sapiens, UniProt Q00535); experiment: KinomeScan kinase profiling; assay type: binding
T2 construct: purchased Ambit Biosciences (San Diego, Calif.)
T2 sequence (Q00535 whole entry): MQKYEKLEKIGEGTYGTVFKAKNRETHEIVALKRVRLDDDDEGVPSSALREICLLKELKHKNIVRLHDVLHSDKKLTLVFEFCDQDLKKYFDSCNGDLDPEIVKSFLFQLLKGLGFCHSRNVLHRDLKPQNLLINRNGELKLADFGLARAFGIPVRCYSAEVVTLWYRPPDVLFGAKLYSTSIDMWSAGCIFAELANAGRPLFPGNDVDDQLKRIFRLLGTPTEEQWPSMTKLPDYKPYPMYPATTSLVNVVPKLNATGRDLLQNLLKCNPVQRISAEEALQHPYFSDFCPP
Description: as §2

KIT = biological target: T3, KIT (Homo sapiens, UniProt P10721); experiment: KinomeScan kinase profiling; assay type: binding
T3 construct: purchased Ambit Biosciences (San Diego, Calif.)
T3 sequence (P10721 26-976): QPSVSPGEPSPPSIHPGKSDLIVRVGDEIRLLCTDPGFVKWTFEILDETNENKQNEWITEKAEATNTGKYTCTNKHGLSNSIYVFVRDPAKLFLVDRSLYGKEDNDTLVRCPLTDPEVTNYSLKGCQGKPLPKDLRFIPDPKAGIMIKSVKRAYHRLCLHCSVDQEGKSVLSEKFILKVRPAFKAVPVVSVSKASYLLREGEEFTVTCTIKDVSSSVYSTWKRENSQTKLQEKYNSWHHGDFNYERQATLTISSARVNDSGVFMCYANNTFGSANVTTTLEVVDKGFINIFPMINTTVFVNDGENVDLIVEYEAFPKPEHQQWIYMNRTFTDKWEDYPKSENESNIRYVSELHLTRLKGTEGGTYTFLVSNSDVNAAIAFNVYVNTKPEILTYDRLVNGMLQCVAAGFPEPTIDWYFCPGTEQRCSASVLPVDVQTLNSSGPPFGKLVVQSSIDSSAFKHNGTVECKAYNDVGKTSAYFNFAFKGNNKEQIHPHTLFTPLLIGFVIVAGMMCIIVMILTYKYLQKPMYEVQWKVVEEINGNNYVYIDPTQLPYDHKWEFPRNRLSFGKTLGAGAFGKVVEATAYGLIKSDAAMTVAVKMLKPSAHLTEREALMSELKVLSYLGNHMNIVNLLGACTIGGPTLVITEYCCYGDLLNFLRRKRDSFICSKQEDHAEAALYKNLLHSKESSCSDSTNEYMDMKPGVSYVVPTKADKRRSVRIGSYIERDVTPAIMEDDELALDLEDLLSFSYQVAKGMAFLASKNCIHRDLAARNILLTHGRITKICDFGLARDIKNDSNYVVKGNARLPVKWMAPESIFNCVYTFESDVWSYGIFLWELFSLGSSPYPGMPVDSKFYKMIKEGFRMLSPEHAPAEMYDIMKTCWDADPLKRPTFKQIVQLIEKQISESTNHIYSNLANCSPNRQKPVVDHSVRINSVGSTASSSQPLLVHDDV
Description: as §2

BRAF = biological target: T4, BRAF (Homo sapiens, UniProt P15056); experiment: KinomeScan kinase profiling; assay type: binding
T4 construct: purchased Ambit Biosciences (San Diego, Calif.)
T4 sequence (P15056 whole entry): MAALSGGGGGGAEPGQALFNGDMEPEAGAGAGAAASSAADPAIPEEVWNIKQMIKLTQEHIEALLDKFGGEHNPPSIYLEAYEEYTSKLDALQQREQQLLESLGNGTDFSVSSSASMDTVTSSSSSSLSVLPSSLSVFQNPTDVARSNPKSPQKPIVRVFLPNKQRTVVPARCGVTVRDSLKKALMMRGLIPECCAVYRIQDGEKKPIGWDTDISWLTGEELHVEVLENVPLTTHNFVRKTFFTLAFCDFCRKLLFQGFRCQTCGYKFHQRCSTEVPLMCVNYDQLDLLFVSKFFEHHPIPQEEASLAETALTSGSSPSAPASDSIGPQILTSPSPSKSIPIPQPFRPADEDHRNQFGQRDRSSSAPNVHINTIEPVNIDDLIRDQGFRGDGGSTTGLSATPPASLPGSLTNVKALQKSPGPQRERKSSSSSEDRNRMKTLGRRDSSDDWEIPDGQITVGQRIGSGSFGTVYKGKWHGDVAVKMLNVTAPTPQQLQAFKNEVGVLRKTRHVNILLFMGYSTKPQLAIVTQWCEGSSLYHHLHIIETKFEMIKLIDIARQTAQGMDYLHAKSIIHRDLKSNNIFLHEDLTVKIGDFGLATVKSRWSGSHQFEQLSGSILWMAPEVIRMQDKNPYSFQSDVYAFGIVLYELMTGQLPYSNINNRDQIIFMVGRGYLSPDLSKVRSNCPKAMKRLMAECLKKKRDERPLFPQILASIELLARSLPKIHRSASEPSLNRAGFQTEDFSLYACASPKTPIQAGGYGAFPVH
Description: as §2

EPHB4 = biological target: T5, EPHB4 (Homo sapiens, UniProt P54760); experiment: KinomeScan kinase profiling; assay type: binding
T5 construct: purchased Ambit Biosciences (San Diego, Calif.)
T5 sequence (P54760 16-987): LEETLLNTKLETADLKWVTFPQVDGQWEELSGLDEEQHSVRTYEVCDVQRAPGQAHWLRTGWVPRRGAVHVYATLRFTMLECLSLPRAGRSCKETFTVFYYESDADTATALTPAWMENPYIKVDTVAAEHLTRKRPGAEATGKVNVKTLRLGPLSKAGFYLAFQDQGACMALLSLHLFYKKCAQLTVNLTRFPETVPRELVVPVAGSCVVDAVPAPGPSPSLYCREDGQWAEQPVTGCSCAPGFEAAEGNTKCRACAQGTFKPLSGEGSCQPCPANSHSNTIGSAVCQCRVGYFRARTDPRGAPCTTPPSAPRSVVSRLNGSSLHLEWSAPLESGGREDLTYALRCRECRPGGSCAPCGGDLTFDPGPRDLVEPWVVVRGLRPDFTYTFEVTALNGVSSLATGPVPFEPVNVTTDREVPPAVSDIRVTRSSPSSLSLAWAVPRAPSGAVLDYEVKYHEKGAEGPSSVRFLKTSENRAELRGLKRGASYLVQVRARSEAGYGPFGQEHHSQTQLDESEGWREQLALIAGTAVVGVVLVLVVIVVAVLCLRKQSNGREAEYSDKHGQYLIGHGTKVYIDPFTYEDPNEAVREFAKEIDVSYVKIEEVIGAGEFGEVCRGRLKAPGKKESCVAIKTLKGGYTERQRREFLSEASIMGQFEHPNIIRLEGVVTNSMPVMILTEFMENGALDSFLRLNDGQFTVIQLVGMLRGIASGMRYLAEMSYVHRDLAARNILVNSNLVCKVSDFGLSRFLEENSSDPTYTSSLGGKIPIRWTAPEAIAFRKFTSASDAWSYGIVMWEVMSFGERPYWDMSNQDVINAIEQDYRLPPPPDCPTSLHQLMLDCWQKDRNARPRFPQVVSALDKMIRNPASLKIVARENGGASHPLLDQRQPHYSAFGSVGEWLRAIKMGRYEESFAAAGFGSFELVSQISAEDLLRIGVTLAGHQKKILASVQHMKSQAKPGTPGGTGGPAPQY
Description: as §2

JAK2(Kin.Dom2) = biological target: T6, JAK2(Kin.Dom2) (Homo sapiens, UniProt O60674); experiment: KinomeScan kinase profiling; assay type: binding
T6 construct: JAK2(Kin.Dom2); purchased Ambit Biosciences (San Diego, Calif.)
T6 sequence (O60674 849-1124 limits assumed): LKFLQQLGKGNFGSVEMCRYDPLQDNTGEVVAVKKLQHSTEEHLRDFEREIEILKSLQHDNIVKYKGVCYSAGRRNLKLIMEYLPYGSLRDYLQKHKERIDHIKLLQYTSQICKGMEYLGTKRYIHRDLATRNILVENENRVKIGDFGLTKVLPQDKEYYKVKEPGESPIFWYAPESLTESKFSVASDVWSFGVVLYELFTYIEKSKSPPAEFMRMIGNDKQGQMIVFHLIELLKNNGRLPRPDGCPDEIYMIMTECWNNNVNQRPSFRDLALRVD
Description: as §2

EPHA2 = biological target: T7, EPHA2 (Homo sapiens, UniProt P29317); experiment: KinomeScan kinase profiling; assay type: binding
T7 construct: purchased Ambit Biosciences (San Diego, Calif.)
T7 sequence (P29317 24-976): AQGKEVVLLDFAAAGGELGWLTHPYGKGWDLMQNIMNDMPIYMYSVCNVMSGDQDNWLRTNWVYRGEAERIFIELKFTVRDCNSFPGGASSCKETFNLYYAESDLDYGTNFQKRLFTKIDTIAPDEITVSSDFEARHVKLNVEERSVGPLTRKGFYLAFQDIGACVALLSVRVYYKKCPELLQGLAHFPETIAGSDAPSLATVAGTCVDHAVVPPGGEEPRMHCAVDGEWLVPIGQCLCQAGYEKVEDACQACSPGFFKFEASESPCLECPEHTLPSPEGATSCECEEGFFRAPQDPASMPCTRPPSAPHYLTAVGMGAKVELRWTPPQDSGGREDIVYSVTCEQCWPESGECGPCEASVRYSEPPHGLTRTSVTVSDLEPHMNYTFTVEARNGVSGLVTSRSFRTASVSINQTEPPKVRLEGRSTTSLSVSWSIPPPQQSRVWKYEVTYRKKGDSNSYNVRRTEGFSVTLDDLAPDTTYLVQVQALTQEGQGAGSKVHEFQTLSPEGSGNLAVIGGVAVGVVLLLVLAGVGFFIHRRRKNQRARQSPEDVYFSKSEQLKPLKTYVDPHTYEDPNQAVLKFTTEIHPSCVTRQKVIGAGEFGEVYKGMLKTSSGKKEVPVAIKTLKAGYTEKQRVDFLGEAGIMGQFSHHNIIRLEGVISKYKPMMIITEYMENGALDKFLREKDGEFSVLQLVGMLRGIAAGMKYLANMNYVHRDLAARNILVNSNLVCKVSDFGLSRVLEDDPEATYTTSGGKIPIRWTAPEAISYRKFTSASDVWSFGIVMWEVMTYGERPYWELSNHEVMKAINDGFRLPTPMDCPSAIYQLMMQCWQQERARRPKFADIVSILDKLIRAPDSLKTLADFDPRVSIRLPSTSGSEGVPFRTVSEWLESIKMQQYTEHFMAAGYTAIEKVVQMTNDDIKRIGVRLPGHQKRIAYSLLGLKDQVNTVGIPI
Description: as §2

RPS6KA2 = biological target: T8, RPS6KA2 (Homo sapiens, UniProt Q15349); experiment: KinomeScan kinase profiling; assay type: binding
T8 construct: purchased Ambit Biosciences
T8 sequence (Q15349 whole entry): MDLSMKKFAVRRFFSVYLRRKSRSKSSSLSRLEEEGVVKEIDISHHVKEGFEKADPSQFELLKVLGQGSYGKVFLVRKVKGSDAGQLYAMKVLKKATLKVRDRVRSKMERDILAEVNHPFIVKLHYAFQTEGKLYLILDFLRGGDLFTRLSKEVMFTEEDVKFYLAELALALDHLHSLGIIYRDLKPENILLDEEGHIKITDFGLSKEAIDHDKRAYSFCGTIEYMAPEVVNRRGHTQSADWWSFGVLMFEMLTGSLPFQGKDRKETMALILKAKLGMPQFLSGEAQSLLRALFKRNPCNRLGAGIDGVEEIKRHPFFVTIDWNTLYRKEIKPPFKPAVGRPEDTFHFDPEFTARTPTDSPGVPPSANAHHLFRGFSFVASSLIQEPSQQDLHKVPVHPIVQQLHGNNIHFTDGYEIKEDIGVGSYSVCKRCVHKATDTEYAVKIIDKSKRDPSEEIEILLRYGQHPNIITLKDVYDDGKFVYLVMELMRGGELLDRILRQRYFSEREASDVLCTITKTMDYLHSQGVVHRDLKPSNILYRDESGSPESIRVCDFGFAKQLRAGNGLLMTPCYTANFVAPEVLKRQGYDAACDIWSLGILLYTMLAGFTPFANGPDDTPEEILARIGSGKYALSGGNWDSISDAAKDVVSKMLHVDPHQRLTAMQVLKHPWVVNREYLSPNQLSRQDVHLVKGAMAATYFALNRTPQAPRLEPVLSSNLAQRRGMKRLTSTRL

PKAC-alpha = biological target: T9, PKAC-alpha (Homo sapiens, UniProt P17612); experiment: KinomeScan kinase profiling; assay type: binding
T9 construct: purchased Ambit Biosciences (San Diego, Calif.)
Description: as §2

inflammatory synovitis = experiment: Air pouch synovitis model; assay type: in vivo, Balbc/J mice; settings: 1 μg LPS, FIG. 3
Description: (§1) Selective CK1δ, CK1ε or CK1δ-CK1ε inhibitors can be tested for their antiinflammatory effects using a variety of in vitro and in vivo tests that are well known in the art. One such in vitro test involves the application of the inhibitor to human neutrophils to observe whether the induction of inflammatory cytokines, such as IL-8, by tumor necrosis factor (TNF) or lipopolysaccharide (LPS) can be reduced. This test is further described in Example 2. An example of an in vivo test, as described in Example 3, is the air pouch model of inflammatory synovitis in mice in which the inhibitors are tested for their blockade of neutrophil influx as well as of inflammatory cytokine accumulation.
Adult Balbc/J mice were purchased from Charles River Labs and housed and utilized according IACUC protocols and standards. The airpouch was inflated on the dorsal surface of each mouse with 3 ml of air, after light anesthesia with CO2/O2 mix. Three days later each pouch was re-inflated with 3 mls of air. After an additional three days, the pouches were injected with vehicle or compound (normally in 0.1% DMSO in PBS) in 1 ml per pouch. After 20 to 30 minutes, each pouch received 1 μg of LPS or control (PBS). The animals were euthanized four to six hours later. The pouches were flushed with 2 ml of PBS, the cells were then collected, counted and normalized for volume recovered. The fluid recovered was analyzed for cytokine production (Luminex Mouse 21-plex assay). The cells were lysed for RNA or protein analysis.

[1] = tested on: IL-8 production in neutrophils; experiment: Neutrophil assay: IL-8 production after stimulation by inflammatory agents; assay type: cell-based; settings: human neutrophils stimulated by inflammatory agents, FIG. 2
Description: as §1
The Histopaque 1077 and 1119 gradient density centrifugation method (Sigma-Aldrich) was used to isolate granulocytes from human blood. The granulocytes were recovered from the 1077/1119 interphase, washed twice with PBS. The red blood cells were lysed with PureGene red cell lysis buffer (Gentra Biosystems). The cells were washed again and resuspended in growth media (RPMI, 10% FBS, β-mercaptoethanol, Pen/Strep/glutamine and sodium pyruvate) at a density of 1 to 5 million per ml. […] The supernatant was analyzed for cytokine production (Luminex human 22-plex assay) and the cells were lysed for RNA production and analysis.

T1 sequence (P15056 whole entry V600E): as the sequence (P15056 whole entry) above, with V600E counted along it

SMILES | inhibition at 10 µM (BRAF(V600E)) [%] | inhibition at 10 µM (CDK5) [%] | inhibition at 10 µM (KIT) [%] | inhibition at 10 µM (BRAF) [%] | inhibition at 10 µM (EPHB4) [%] | inhibition at 10 µM (JAK2(Kin.Dom2)) [%] | inhibition at 10 µM (EPHA2) [%] | inhibition at 10 µM (RPS6KA2) [%] | inhibition at 10 µM (PKAC-alpha) [%] | production of IL-6 (inflammatory synovitis; mouse air pouch fluid) | production of MCP1 (inflammatory synovitis; mouse air pouch fluid) | neutrophil influx (inflammatory synovitis; mouse air pouch, compound injected into pouch) | inhibition of IL-8 production in neutrophils [1]
NC(=O)c1ccc(-c2nc(-c3ccc4c(c3)OCCO4)c(-c3ccccn3)[nH]2)cc1 [D4476, 4-[4-(2,3-Dihydro-benzo[1,4]dioxin-6-yl)-5-pyridin-2-yl-1H-imidazol-2-yl]benzamide] | < 50 | < 50 | < 50 | < 50 | < 50 | < 50 | < 50 | < 50 | < 50 |  |  |  | 
NC(=O)c1ccc(-c2nc(-c3ccc4c(c3)OCO4)c(-c3ccccn3)[nH]2)cc1 [SB431542, 4-(4-benzo-[1,3]dioxol-5-yl-5-pyridin-2-yl-1H-imidazol-2-yl)benzamide] |  | < 50 | < 50 |  | < 50 | < 50 | < 50 | < 50 | < 50 | inhibited | inhibited | inhibited | dose-dependent inhibition
